Test results from patent publication US20170226145A1, “METHODS OF EXTRACTION AND PURIFICATION FROM STEVIA REBAUDIANA OF COMPOSITIONS WITH ENHANCED REBAUDIOSIDE-M CONTENT, USES OF SAID COMPOSITION AND NATURAL SWEETENER COMPOSITIONS WITH SAID COMPOSITION” (GLG LIFE TECH CORPORATION, priority 2014, published 2017).
One block for each molecule: values may come before it.

How the values were obtained:
[1] = Solubility in water and solvents; assay type: physicochemical
Heat and pH stability = assay type: physicochemical; details: RM obtained in accordance with the invention
[2] = Sweetness relative to sucrose (general statements, Table 1)
Text: The physical and sensory properties are well studied generally only for Stevioside (STV) and Rebaudioside A. The sweetness potency of Stevioside is around 210 times higher than sucrose, Rebaudioside A is between 200 and 400 times, and Rebaudioside C is between 40 and 50 times and Dulcoside A around 30 times. Traditionally, Rebaudioside A is considered to have the most favorable sensory attributes of the four major steviol glycosides (see Table 1): […]

[3] = glycosides of wild type stevia; cited from earlier work
[4] = Example 8 sample test results of sweetener solutions (Table 2)
Text: Reb M 95, Reb C 85, Reb D 95, Reb A 97, Sucrose, New Blends RA97 and RM95, New Blends RA97, RM95 and RC85, New Blends RM95, RA97 and Sucrose, New Blends RM95, RA97 and Erythritol, Purified Water. [table]

solubility in acetone, benzene, chloroform, and ether [1]: insoluble
solubility in diluted solutions of methanol, ethanol, n-propanol, and isopropanol [1]: soluble
solubility of RM in water ([1]; increases with an increase in temperature): around 0.3%
heat and pH stability (Heat and pH stability): heat and pH-stable
Molecule: C=C1C[C@@]23CC[C@H]4[C@@](C)(CCC[C@@]4(C)C(=O)O[C@@H]4O[C@H](CO)[C@@H](O)[C@H](O[C@@H]5O[C@H](CO)[C@@H](O)[C@H](O)[C@H]5O)[C@H]4O[C@@H]4O[C@H](CO)[C@@H](O)[C@H](O)[C@H]4O)[C@@H]2CC[C@]1(O[C@@H]1O[C@H](CO)[C@@H](O)[C@H](O[C@@H]2O[C@H](CO)[C@@H](O)[C@H](O)[C@H]2O)[C@H]1O[C@@H]1O[C@H](CO)[C@@H](O)[C@H](O)[C@H]1O)C3 [RM, Rebaudioside M]
times sweeter than sugar ([2]; compared to a 10% sucrose solution): about 200 times
times sweetness of sucrose ([2]; purified Reb M of the invention): more than 300 times

Molecule: C=C1C[C@@]23CC[C@H]4[C@@](C)(CCC[C@@]4(C)C(=O)O[C@@H]4O[C@H](CO)[C@@H](O)[C@H](O)[C@H]4O)[C@@H]2CC[C@]1(O[C@@H]1O[C@H](CO)[C@@H](O)[C@H](O[C@@H]2O[C@H](CO)[C@@H](O)[C@H](O)[C@H]2O)[C@H]1O[C@@H]1O[C@H](CO)[C@@H](O)[C@H](O)[C@H]1O)C3 [Rebaudioside A]
sweetness, × of sugar [3]: 350-450 × of sugar

Molecule: C=C1C[C@@]23CC[C@H]4[C@@](C)(CCC[C@@]4(C)C(=O)O[C@@H]4O[C@H](CO)[C@@H](O)[C@H](O)[C@H]4O)[C@@H]2CC[C@]1(O[C@@H]1O[C@H](CO)[C@@H](O)[C@H](O)[C@H]1O[C@@H]1O[C@H](CO)[C@@H](O)[C@H](O)[C@H]1O)C3 [Stevioside]
sweetness, × of sugar [3]: 250-300 × of sugar

Molecule: OC[C@H]1O[C@@](CO)(O[C@H]2O[C@H](CO)[C@@H](O)[C@H](O)[C@H]2O)[C@@H](O)[C@@H]1O [Sucrose]
Content/100 ml ([4]; amount per 100 ml in the solution that has sweetness 9° (9 g sucrose)): 9 g
Sweetness of Solution ([4]; solution at the Content/100 ml of Table 2): 9°

Molecule: Rebaudioside C
sweetness, × of sugar [3]: 40-50 × of sugar
